Test results published in patent US20240409609A1, “REVERSIBLE LYSINE COVALENT MODIFIERS OF EGFR AND USES THEREOF” (Terremoto Biosciences, Inc., priority 2021, published 2024).

Assays:
WT-EGFR = WT-EGFR (Homo sapiens (Human), UniProt P00533); assay: EGFR jump dilution study; format: biochemical; conditions: 100-fold dilution, 1 mM ATP, up to 10 hrs
Experimental: Enzyme:inhibitor complexes were pre-formed at EGFR 100Y^1 final reaction concentration by incubating enzyme with an inhibitor at the greater concentration of either 10Y^1 inhibitor IC50, or 1:1.2 stoichiometry with enzyme.
After incubating enzyme:inhibitor complexes on ice for 30 min, reactions were diluted in two steps 100-fold into reaction buffer supplemented with 1 mM ATP, and 20 uM AssayQuant substrate (AQT0734), with final reaction volumes of 20 μL in a 384 well reaction plate. Wells were read immediately and at timepoints post-dilution for up to 10 hrs in a PerkinElmer Ensight plate reader, according to the AssayQuant manufacturer's instructions.
Data processing: Raw fluorescence signal was first background corrected by subtracting the fluorescence intensity of wells containing only the AssayQuant substrate, and no enzyme. Enzyme activity was normalized relative DMSO controls for each enzyme at each timepoint. In this way, DMSO-treated wells appear as a constant normalized activity=1 throughout the assay.
The X-axis of each of the three graphs represents the time after dilution that the enzyme activity was measured, with t=0 representing the time of jump dilution. The Y-axis of each graph provides the enzymatic activity at each time point. Enzymatic activity is normalized to the DMSO-treated control samples (i.e., the same enzyme variant treated with DMSO instead of compound). As such, a DMSO-normalized value of 1.0 represents full enzymatic activity (i.e., equivalent to the DMSO-treated control), while a value below 1.0 represents reduced activity relative to control (i.e., some degree of enzyme inhibition at the time measured). The data points over time (e.g., from 0 to 600 minutes post-dilution) are therefore indicative of the off-rate for the compound. […] Thus, the jump-dilution data provided a qualitative estimate of the off-rate kinetics for each compound against the panel of EGFR variants. Experiments were run in duplicate, resulting in two different data sets for each graph.

EGFR WT = EGFR WT (Homo sapiens (Human), UniProt P00533); assay: EGFR biochemical assay (AssayQuant chelation-enhanced fluorescence); conditions: 30 min preincubation, reaction time 360 min
Sequence of EGFR WT (P00533 668-1210): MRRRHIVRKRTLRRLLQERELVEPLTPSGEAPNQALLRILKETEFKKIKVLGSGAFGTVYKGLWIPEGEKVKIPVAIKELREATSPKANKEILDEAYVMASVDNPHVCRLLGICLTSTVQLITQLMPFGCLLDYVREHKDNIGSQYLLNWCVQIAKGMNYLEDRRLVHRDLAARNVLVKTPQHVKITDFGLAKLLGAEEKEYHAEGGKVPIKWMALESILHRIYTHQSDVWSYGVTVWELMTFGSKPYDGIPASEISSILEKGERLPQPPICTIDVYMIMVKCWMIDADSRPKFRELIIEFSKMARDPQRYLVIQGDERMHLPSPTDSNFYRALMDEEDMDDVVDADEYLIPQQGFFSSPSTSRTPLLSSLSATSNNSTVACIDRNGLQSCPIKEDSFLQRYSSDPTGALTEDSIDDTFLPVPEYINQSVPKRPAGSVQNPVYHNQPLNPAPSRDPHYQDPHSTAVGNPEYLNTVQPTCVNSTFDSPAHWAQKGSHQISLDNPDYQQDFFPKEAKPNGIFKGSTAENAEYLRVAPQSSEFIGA

Sequence of WT-EGFR (P00533 668-1210): as above

Compound | off-rate kinetics after jump dilution (WT-EGFR) | IC50 (EGFR WT) [nM]
COc1cc(N2CCC(N3CCN(C)CC3)CC2)ccc1Nc1ncc(Cl)c(Nc2ccccc2-c2cccc(C=O)c2O)n1 [Compound 6] | slow-off kinetics | > 1000
COc1cc(N(C)CCN(C)C)c(NC(C)=O)cc1Nc1nccc(-c2cn(Cc3cccc(C=O)c3O)c3ccccc23)n1 [Compound 7] | slow-off kinetics | 
COc1cc(N2CCC(N3CCN(C)CC3)CC2)ccc1Nc1ncc(-c2ccc(O)c(C=O)c2)c(Nc2ccccc2)n1 [Compound 3] | slow-off kinetics | 
C#CCNC(=O)c1cc(Nc2cc(C3CC3)[nH]n2)nc(N2CCN(Cc3ccc(C=O)c(O)c3)CC2)n1 [Compound 1] | enzymatic activity quickly returned following dilution | 
